Experimental findings from patent US7638540B2, “Benzofuran compound and medicinal composition containing the same” (The New Industry Research Organization, priority 2003, dated 2009) are described below.

Compound `CCN(CC)C(=O)/C=C(\C)c1ccc2oc(C(=O)Nc3cccc(OC)c3)c(NC(=O)/C(C#N)=C(/C)O)c2c1` [Example 189, 3-(2-cyano-3-hydroxy-(Z)-2-butenoylamino)-5-((E)-2-diethylcarbamoyl-1-methylvinyl)-benzofurane-2-carboxylic acid(3-methoxyphenyl)amide] displayed a melting point of 172 to 174 °C.
In the case of `N#Cc1oc2ccc(Br)cc2c1NC(=O)/C=C/c1ccccc1` [Example 122, (E)-N-(5-bromo-2-cyanobenzofuran-3-yl)-3-phenylacrylamide] it was 240.2 to 242 °C.
For `COc1ccc(CCNC(=O)/C=C(\C)c2ccc3oc(C(=O)c4ccc(C#N)cc4)c(NC(=O)c4cnoc4C)c3c2)cc1OC` [Example 90, (E)-N-(2-(4-cyanobenzoyl)-5-{2-[2-(3,4-dimethoxyphenyl)ethylcarbamoyl]-1-methylvinyl}benzofuran-3-yl)-5-methylisoxazole-4-carboxamide] the value was 162.6 to 165.5 °C.
Take `CC(=O)c1oc2ccc(Br)cc2c1NC(=O)CC#N` [Example 193, N-(2-acetyl-5-bromobenzofuran-3-yl)-2-cyanoacetamide]: the melting point was in the range of 214.4 to 215.1 °C.
For `C/C(O)=C(\C#N)C(=O)Nc1c(C(=O)O)oc2ccccc12` [Example 92, (Z)-3-(2-cyano-3-hydroxy-2-butenoylamino)benzofurane-2-carboxylic acid] the value was 196.3 to 196.6 °C; for `COc1cc(C(=O)Nc2c(C(C)=O)oc3ccc(Br)cc23)cc(OC)c1OC` [Example 210, N-(2-acetyl-5-bromobenzofuran-3-yl)-3,4,5-trimethoxybenzamide], 212 to 212.3 °C; for `Cc1nc(-c2oc3c(Cl)cccc3c2-c2ccc(Cl)cc2)cs1` [Example 214, 4-[7-chloro-3-(4-chlorophenyl)benzofuran-2-yl]-2-methylthiazole], 156.4 to 158.4 °C.
In the case of `COc1cccc2c(NC(=O)/C=C/c3ccccc3)c(C(C)=O)oc12` [Example 182, (E)-N-(2-acetyl-7-methoxybenzofuran-3-yl)-3-phenylacrylamide] it was 160.6 to 161.1 °C.
For `O=C(/C=C/c1ccccc1)Nc1c(Cl)oc2ccc(Br)cc12` [Example 180, (E)-N-(5-bromo-2-chlorobenzofuran-3-yl)-3-phenylacrylamide] the value was 248.7 to 250.3 °C.
`CC(=O)NC(C)c1cc2ccccc2o1` (stereo not shown) [Example 190, N-(1-benzofuran-2-ylethyl)acetamide]: the melting point was 128 to 130 °C.
In the case of `Cc1oncc1C(=O)Nc1c(C(=O)c2ccc(Cl)cc2)oc2ccc(Br)cc12` [Example 77, N-[5-bromo-2-(4-chlorobenzoyl)benzofuran-3-yl]-5-methylisoxazole-4-carboxamide] it was 240.8 to 243.2 °C.
On to `Cc1oncc1C(=O)Nc1c(C(C)O)oc2ccc(Br)cc12` (stereo not shown) [Example 70, N-[5-bromo-2-(1-hydroxyethyl)benzofuran-3-yl]-5-methylisoxazole-4-carboxamide], for which the melting point lay within 125.2 to 128.8 °C.
For `CCOC(=O)/C=C(\C)c1ccc2oc(/C(Cl)=C/C=O)cc2c1` [Example 146, Ethyl 3-[2-(1-chloro-3-oxo-(Z)-propenyl)benzofuran-5-yl]-(E)-2-butenoate] the value was 99.5 to 101 °C.
For `COc1ccc(CCNC(=O)/C=C(\C)c2ccc(C(=O)c3oc4c(OC)cccc4c3NC(=O)c3cnoc3C)cc2)cc1OC` [Example 84, (E)-N-[2-(4-{2-[2-(3,4-dimethoxyphenyl)ethylcarbamoyl]-1-methylvinyl}benzoyl)-7-methoxybenzofuran-3-yl]-5-methylisoxazole-4-carboxamide] the value was 237.5 to 239.1 °C; for `CCOC(=O)c1oc2ccc(Br)cc2c1NC(=O)c1cnoc1C` [Example 67, Ethyl 5-bromo-3-[(5-methylisoxazole-4-carbonyl)amino]benzofurane-2-carboxylate], 170 to 172.8 °C.
For `CCN(CC)C(=O)/C=C(\C)c1cc(Cl)cc2cc(C(C)=O)oc12` [Example 170, (E)-3-(2-acetyl-5-chloro-benzofuran-7-yl)-2-butenoic acid diethylamide] the value was 116 to 117.5 °C; for `CCOC(=O)C(CSCc1ccccc1)NC(=O)/C=C/C=C(\Cl)c1cc2cccc(OCCCCl)c2o1` (stereo not shown) [Example 63, Ethyl (2E,4Z)-3-benzylsulfanyl-2-{5-chloro-5-[7-(3-chloropropoxy)benzofuran-2-yl]penta-2,4-dienoylamino}propionate], 116.5 to 118.3 °C; for `CCN(CC)C(=O)/C=C(/C)c1oc2ccc(Br)cc2c1C` [Example 153, (Z)-3-(5-bromo-3-methylbenzofuran-2-yl)-2-butenoic acid diethylamide], 60.1 to 62 °C.
For the compound `CC(=O)c1oc2ccc(/C(C)=C/C(=O)N3CCOCC3)cc2c1NC(=O)/C(C#N)=C(/C)O` [Example 108, N-[2-acetyl-5-(1-methyl-3-morpholino-3-oxo-(E)-1-propenyl)benzofuran-3-yl]-2-cyano-3-hydroxy-(Z)-2-butenamide], the melting point is 206.9 to 208.6 °C.
For `COc1ccc2oc(-c3nc(N=CN(C)C)sc3C=O)c(-c3ccc(Cl)cc3)c2c1` [Example 221, N′-{4-[3-(4-chlorophenyl)-5-methoxybenzofuran-2-yl]-5-formylthiazol-2-yl}-N,N-dimethylformamidine] the value was 203.5 to 205 °C; for `C/C(O)=C(\C#N)C(=O)NC(C)c1cc2cccc(OCCCC(=O)O)c2o1` (stereo not shown) [Example 126, (Z)-4-{2-[1-(2-cyano-3-hydroxy-2-butenoylamino)ethyl]benzofuran-7-yloxy}butyric acid], 147.9 to 148.6 °C.
Regarding `Cc1oncc1C(=O)Nc1c(C(N)=O)oc2ccccc12` [Example 79, N-(2-carbamoylbenzofuran-3-yl)-5-methylisoxazole-4-carboxamide], the melting point lay in the range of 250.7 to 252.6 °C.
For `COc1cccc2c(NC(=O)CC#N)c(C(=O)c3ccc(Br)cc3)oc12` [Example 198, N-[2-(4-bromobenzoyl)-7-methoxybenzofuran-3-yl]-2-cyanoacetamide] the value was 312.2 to 348.6 °C; for `C/C(O)=C(/C#N)C(=O)NC(C)c1cc2cccc(OCC(=O)O)c2o1` (stereo not shown) [Example 127, (E)-{2-[1-(2-cyano-3-hydroxy-2-butenoylamino)ethyl]benzofuran-7-yloxy}acetic acid], 169.9 to 173.2 °C.
In turn, `COc1ccc(CCNC(=O)/C=C(\C)c2ccc3oc(C(=O)c4ccccc4)cc3c2)cc1OC` [Example 24, (E)-3-(2-benzoylbenzofuran-5-yl)-N-[2-(3,4-dimethoxyphenyl)ethyl]-2-butenamide] showed a melting point of 126.9 to 129.4 °C.
As to `COc1cccc2c(NC(=O)c3cnoc3C)c(C(=O)c3ccc(Cl)cc3)oc12` [Example 82, N-[2-(4-chlorobenzoyl)-7-methoxybenzofuran-3-yl]-5-methylisoxazole-4-carboxamide], the melting point lay in the range of 237.4 to 239.5 °C.
Turning to `CCNS(=O)(=O)c1ccc(OCCCC(=O)O)c2oc(C(C)NC(=O)/C(C#N)=C(\C)O)cc12` (stereo not shown) [Example 129, (E)-4-{2-[1-(2-cyano-3-hydroxy-2-butenoylamino)ethyl]-4-ethylsulfamoylbenzofuran-7-yloxy}butyric acid], the melting point is 169.3 to 170.2 °C.
For `CCN(CC)C(=O)/C=C(\C)c1ccc2oc(C(=O)c3ccc(C#N)cc3)c(NC(=O)c3cnoc3C)c2c1` [Example 89, (E)-N-[2-(4-cyanobenzoyl)-5-(2-diethylcarbamoyl-1-methylvinyl)benzofuran-3-yl]-5-methylisoxazole-4-carboxamide] the value was 202.6 to 205.5 °C; for `COc1ccc(NC(=O)/C=C(\C)c2cc3cccc(OC(c4ccccc4)c4ccccc4)c3o2)cc1` [Example 41, (E)-3-(7-benzhydryloxybenzofuran-2-yl)-N-(4-methoxyphenyl)-2-butenamide], 191.8 to 193.6 °C; for `CCNS(=O)(=O)c1ccc(OCCCC(=O)OCC)c2oc(C(C)NC(=O)/C(C#N)=C(\C)O)cc12` (stereo not shown) [Example 128, Ethyl (E)-4-{2-[1-(2-cyano-3-hydroxy-2-butenoylamino)ethyl]-4-ethylsulfamoylbenzofuran-7-yloxy}butyrate], 121 to 122.1 °C.
In the case of `COc1ccc(CCNC(=O)/C=C/C=C(\Cl)c2cc3cccc(OCCCCl)c3o2)cc1OC` [Example 60, (2E,4Z)-5-chloro-5-[7-(3-chloropropoxy)benzofuran-2-yl]penta-2,4-dienoic acid [2-(3,4-dimethoxyphenyl)ethyl]amide] it was 149 to 150 °C.
In the case of `CCOC(=O)/C=C(\C)c1ccc2oc(/C(Cl)=C/C=C/C(=O)N3CCOCC3)cc2c1` [Example 148, Ethyl 3-[2-(1-chloro-5-morpholin-4-yl-5-oxo-penta-(1Z,3E)-1,3-dienyl)benzofuran-5-yl]-(E)-2-butenoate] it was 194.6 to 196.5 °C.
For the compound `COc1cccc2c(NC(=O)CCl)c(C(C)=O)oc12` [Example 205, N-(2-acetyl-7-methoxybenzofuran-3-yl)-2-chloroacetamide], the melting point was 186.2 to 188.3 °C.
For `CCOC(=O)c1oc2ccccc2c1NC(=O)c1cnoc1C` [Example 68, Ethyl 3-[(5-methylisoxazole-4-carbonyl)amino]benzofurane-2-carboxylate] the value was 166 to 168.2 °C.
For `COc1ccc(NC(=O)c2cnoc2C)c2cc(C(C)=O)oc12` [Example 111, N-(2-acetyl-7-methoxybenzofuran-4-yl)-5-methylisoxazole-4-carboxamide] the value was 201.8 to 205.9 °C; for `CCCCc1oc2ccccc2c1/C(Cl)=C/C=C/C(=O)Nc1ccc(OC)cc1` [Example 135, (2E,4Z)-5-(2-butylbenzofuran-3-yl)-5-chloropenta-2,4-dienoic acid (4-methoxyphenyl)amide], 91.3 to 93.2 °C.
In turn, `CC(=O)c1oc2ccc(Br)cc2c1NC(=O)/C(C#N)=C(/C)O` [Example 96, (Z)-N-(2-acetyl-5-bromobenzofuran-3-yl)-2-cyano-3-hydroxy-2-butenamide] showed a melting point of 221.9 to 222.4 °C.

What is called melting point is the temperature of the solid-liquid transition.
